These results are taken from paper PMC7665585, “Antidepressive effect of an inward rectifier K^+ channel blocker peptide, tertiapin-RQ” (PLoS ONE, 2020).

Bridge positions count the residues as written; N and C are the ends. Peptide text beside a SMILES is read from it.

In this test the target is T1, rat ROMK (Rattus norvegicus, UniProt P35560).
T1 construct: expressed in transfected cells; host or cells: 293T cell line 208-4 (lentiviral transduction, GFP coexpressed)
T1 sequence (P35560 1-391): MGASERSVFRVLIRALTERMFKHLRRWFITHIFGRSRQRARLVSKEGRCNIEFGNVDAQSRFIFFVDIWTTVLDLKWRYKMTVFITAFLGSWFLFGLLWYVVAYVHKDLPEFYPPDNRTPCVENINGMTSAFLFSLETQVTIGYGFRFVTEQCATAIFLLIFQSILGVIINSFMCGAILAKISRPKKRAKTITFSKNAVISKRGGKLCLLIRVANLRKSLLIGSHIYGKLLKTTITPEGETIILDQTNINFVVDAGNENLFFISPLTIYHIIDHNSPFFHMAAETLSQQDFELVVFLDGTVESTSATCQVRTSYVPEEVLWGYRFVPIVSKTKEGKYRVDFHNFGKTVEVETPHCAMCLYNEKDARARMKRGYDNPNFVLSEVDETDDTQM
In words: Whole-cell patch-clamp of ROMK currents in 208–4 cells. The class given is cell-based. The following applies: blockade at 1 μM estimated from fitted Hill curve (four parameters), whole-cell conductance, n = 3–6, read-out: Activity (ROMK channel blocking activity, percentage of blockade at 1 μM). From the text: The cDNAs for rat ROMK and mouse GIRK1, 2, and 4 were generously donated by Drs Mikio Hayashi (Kansai Medical University) and David Weaver (Vanderbilt University). The ROMK channels were stably expressed by a cell line, 208–4, which was transduced with lentiviral vectors coexpressing the channel and green fluorescent protein (GFP) as described previously. The GIRK genes, cloned in a pCMV6 plasmid (Origene Technologies Inc, Rockville, MD), were transiently expressed in 293T cells with calcium phosphate transfection. GIRK channel currents were recorded 24 h after transfection.
Cells grown on small cover glasses (3 × 18 mm) were placed in a recording chamber. Whole-cell currents were recorded in Tyrode solution using an Axopatch 200B amplifier (Axon Instruments, Foster City, CA) at 25°C. Tyrode solution contained (in mM): NaCl 140, KCl 5.4, NaH2PO4 0.33, CaCl2 2, MgCl2 1, HEPES 5, and glucose 5.5 (pH 7.4 adjusted with NaOH). High K^+ Tyrode solution (KCL 50 mM, NaCl 95 mM, and others were the same as standard Tyrode solution) was used for the recording of GIRK channels. Patch pipettes pulled from borosilicate glass (Narishige, Tokyo, Japan) were filled with an internal solution containing (in mM): K-aspartate 66, KCl 71.5, KH2PO4 1, EGTA 5, HEPES 5, and MgATP 3 (pH 7.4 adjusted with KOH). Recordings were digitized at 10 kHz, and low-pass filtered at 2 kHz. ROMK, Kir2.1, and GIRK currents were evoked with step pulses of 400 msec from -150 mV to 10 mV in 10 mV increments from a holding potential of -70 mV. Whole-cell currents were recorded 60 sec after the peptide application and those from 100 to 300 msec of the step pulses were averaged. Liquid junction potential or capacitive transient was not corrected or compensated. Whole-cell conductance was calculated as the slope of the current-voltage (I-V) relationship from -140 mV to -100 mV and normalized to the initial value (0 μM TPN), in which BaCl2-resistant current was subtracted and indicted as a percentage.

For `CC[C@H](C)[C@@H]1NC(=O)[C@H](CCCNC(=N)N)NC(=O)[C@H](CCCNC(=N)N)NC(=O)[C@H](C)NC(=O)[C@@H]2CSSC[C@@H](C(=O)NCC(=O)N[C@@H](CCCCN)C(=O)N[C@@H](CCCCN)C(N)=O)NC(=O)[C@H](CCCCN)NC(=O)[C@H](CCCCN)NC(=O)[C@H](Cc3c[nH]c4ccccc34)NC(=O)[C@H](CSSC[C@H](NC(=O)[C@H](CC(C)C)NC(=O)[C@H](C)N)C(=O)N[C@@H](CC(N)=O)C(=O)N2)NC(=O)[C@H](CCC(N)=O)NC(=O)[C@H](Cc2c[nH]cn2)NC(=O)[C@@H]2CCCN2C(=O)[C@H]([C@@H](C)CC)NC1=O` [Peptide 57, TPN-RQ(N6A)] (H-ALCNCARRIIPHQCWKKCGKK-NH2; disulfide 3-14, 5-18), the inhibition at 1 µM is 60 to 80%.
To `CC[C@H](C)[C@@H]1NC(=O)[C@H](C)NC(=O)[C@H](C)NC(=O)[C@H](CC(N)=O)NC(=O)[C@@H]2CSSC[C@@H](C(=O)NCC(=O)N[C@@H](CCCCN)C(=O)N[C@@H](CCCCN)C(N)=O)NC(=O)[C@H](CCCCN)NC(=O)[C@H](CCCCN)NC(=O)[C@H](Cc3c[nH]c4ccccc34)NC(=O)[C@H](CSSC[C@H](NC(=O)[C@H](CC(C)C)NC(=O)[C@H](C)N)C(=O)N[C@@H](CC(N)=O)C(=O)N2)NC(=O)[C@H](CCC(N)=O)NC(=O)[C@H](Cc2c[nH]cn2)NC(=O)[C@@H]2CCCN2C(=O)[C@H]([C@@H](C)CC)NC1=O` [Peptide 58, TPN-RQ(R7A/R8A)] (H-ALCNCNAAIIPHQCWKKCGKK-NH2; disulfide 3-14, 5-18) belongs less than 20%; to `CC[C@H](C)[C@@H]1NC(=O)[C@H](C)NC(=O)[C@H](CCCNC(=N)N)NC(=O)[C@H](CC(N)=O)NC(=O)[C@@H]2CSSC[C@@H](C(=O)NCC(=O)N[C@@H](CCCCN)C(=O)N[C@@H](CCCCN)C(N)=O)NC(=O)[C@H](CCCCN)NC(=O)[C@H](CCCCN)NC(=O)[C@H](Cc3c[nH]c4ccccc34)NC(=O)[C@H](CSSC[C@H](NC(=O)[C@H](CC(C)C)NC(=O)[C@H](C)N)C(=O)N[C@@H](CC(N)=O)C(=O)N2)NC(=O)[C@H](CCC(N)=O)NC(=O)[C@H](Cc2c[nH]cn2)NC(=O)[C@@H]2CCCN2C(=O)[C@H]([C@@H](C)CC)NC1=O` [Peptide 59, TPN-RQ(R8A)] (H-ALCNCNRAIIPHQCWKKCGKK-NH2; disulfide 3-14, 5-18), 60 to 80%.
Turning to `CC[C@H](C)[C@@H]1NC(=O)[C@H](C)NC(=O)[C@H](CCCNC(=N)N)NC(=O)[C@H](CCCNC(=N)N)NC(=O)[C@H](CC(N)=O)NC(=O)[C@@H]2CSSC[C@@H](C(=O)NCC(=O)N[C@@H](CCCCN)C(=O)N[C@@H](CCCCN)C(N)=O)NC(=O)[C@H](CCCCN)NC(=O)[C@H](CCCCN)NC(=O)[C@H](Cc3c[nH]c4ccccc34)NC(=O)[C@H](CSSC[C@H](NC(=O)[C@H](CC(C)C)NC(=O)[C@H](C)N)C(=O)N[C@@H](CC(N)=O)C(=O)N2)NC(=O)[C@H](CCC(N)=O)NC(=O)[C@H](Cc2c[nH]cn2)NC(=O)[C@@H]2CCCN2C1=O` [Peptide 60, TPN-RQ(I9A)] (H-ALCNCNRRAIPHQCWKKCGKK-NH2; disulfide 3-14, 5-18), the inhibition at 1 µM is 40 to 60%.
As to `CC[C@H](C)[C@@H]1NC(=O)[C@H](CCCNC(=N)N)NC(=O)[C@H](CCCNC(=N)N)NC(=O)[C@H](CC(N)=O)NC(=O)[C@@H]2CSSC[C@@H](C(=O)NCC(=O)N[C@@H](CCCCN)C(=O)N[C@@H](CCCCN)C(N)=O)NC(=O)[C@H](CCCCN)NC(=O)[C@H](CCCCN)NC(=O)[C@H](Cc3c[nH]c4ccccc34)NC(=O)[C@H](CSSC[C@H](NC(=O)[C@H](CC(C)C)NC(=O)[C@H](C)N)C(=O)N[C@@H](CC(N)=O)C(=O)N2)NC(=O)[C@H](CCC(N)=O)NC(=O)[C@H](Cc2c[nH]cn2)NC(=O)[C@@H]2CCCN2C(=O)[C@H](C)NC1=O` [Peptide 61, TPN-RQ(I10A)] (H-ALCNCNRRIAPHQCWKKCGKK-NH2; disulfide 3-14, 5-18), the inhibition at 1 µM is 20 to 40%.
As for `CC[C@H](C)[C@@H]1NC(=O)[C@H](CCCNC(=N)N)NC(=O)[C@H](CCCNC(=N)N)NC(=O)[C@H](CC(N)=O)NC(=O)[C@@H]2CSSC[C@@H](C(=O)NCC(=O)N[C@@H](CCCCN)C(=O)N[C@@H](CCCCN)C(N)=O)NC(=O)[C@H](CCCCN)NC(=O)[C@H](CCCCN)NC(=O)[C@H](Cc3c[nH]c4ccccc34)NC(=O)[C@H](CSSC[C@H](NC(=O)[C@H](CC(C)C)NC(=O)[C@H](C)N)C(=O)N[C@@H](CC(N)=O)C(=O)N2)NC(=O)[C@H](CCC(N)=O)NC(=O)[C@H](Cc2c[nH]cn2)NC(=O)[C@H](C)NC(=O)[C@H]([C@@H](C)CC)NC1=O` [Peptide 62, TPN-RQ(P11A)] (H-ALCNCNRRIIAHQCWKKCGKK-NH2; disulfide 3-14, 5-18), the inhibition at 1 µM was greater than 80%.
With `CC[C@H](C)[C@@H]1NC(=O)[C@H](CCCNC(=N)N)NC(=O)[C@H](CCCNC(=N)N)NC(=O)[C@H](CC(N)=O)NC(=O)[C@@H]2CSSC[C@@H](C(=O)NCC(=O)N[C@@H](CCCCN)C(=O)N[C@@H](CCCCN)C(N)=O)NC(=O)[C@H](CCCCN)NC(=O)[C@H](CCCCN)NC(=O)[C@H](Cc3c[nH]c4ccccc34)NC(=O)[C@H](CSSC[C@H](NC(=O)[C@H](CC(C)C)NC(=O)[C@H](C)N)C(=O)N[C@@H](CC(N)=O)C(=O)N2)NC(=O)[C@H](CCC(N)=O)NC(=O)[C@H](C)NC(=O)[C@@H]2CCCN2C(=O)[C@H]([C@@H](C)CC)NC1=O` [Peptide 63, TPN-RQ(H12A)] (H-ALCNCNRRIIPAQCWKKCGKK-NH2; disulfide 3-14, 5-18), the inhibition at 1 µM was 40 to 60%.
Turning to `CC[C@H](C)[C@@H]1NC(=O)[C@H](CCCNC(=N)N)NC(=O)[C@H](CCCNC(=N)N)NC(=O)[C@H](CC(N)=O)NC(=O)[C@@H]2CSSC[C@@H](C(=O)NCC(=O)N[C@@H](CCCCN)C(=O)N[C@@H](CCCCN)C(N)=O)NC(=O)[C@H](CCCCN)NC(=O)[C@H](CCCCN)NC(=O)[C@H](Cc3c[nH]c4ccccc34)NC(=O)[C@H](CSSC[C@H](NC(=O)[C@H](CC(C)C)NC(=O)[C@H](C)N)C(=O)N[C@@H](CC(N)=O)C(=O)N2)NC(=O)[C@H](C)NC(=O)[C@H](Cc2c[nH]cn2)NC(=O)[C@@H]2CCCN2C(=O)[C@H]([C@@H](C)CC)NC1=O` [Peptide 64, TPN-RQ(Q13A)] (H-ALCNCNRRIIPHACWKKCGKK-NH2; disulfide 3-14, 5-18), the inhibition at 1 µM was 20 to 40%.
For `CC[C@H](C)[C@@H]1NC(=O)[C@H](CCCNC(=N)N)NC(=O)[C@H](CCCNC(=N)N)NC(=O)[C@H](CC(N)=O)NC(=O)[C@@H]2CSSC[C@@H](C(=O)NCC(=O)N[C@@H](CCCCN)C(=O)N[C@@H](CCCCN)C(N)=O)NC(=O)[C@H](CCCCN)NC(=O)[C@H](CCCCN)NC(=O)[C@H](C)NC(=O)[C@H](CSSC[C@H](NC(=O)[C@H](CC(C)C)NC(=O)[C@H](C)N)C(=O)N[C@@H](CC(N)=O)C(=O)N2)NC(=O)[C@H](CCC(N)=O)NC(=O)[C@H](Cc2c[nH]cn2)NC(=O)[C@@H]2CCCN2C(=O)[C@H]([C@@H](C)CC)NC1=O` [Peptide 65, TPN-RQ(W15A)] (H-ALCNCNRRIIPHQCAKKCGKK-NH2; disulfide 3-14, 5-18), the inhibition at 1 µM is 20 to 40%.
As for `CC[C@H](C)[C@@H]1NC(=O)[C@H](CCCNC(=N)N)NC(=O)[C@H](CCCNC(=N)N)NC(=O)[C@H](CC(N)=O)NC(=O)[C@@H]2CSSC[C@@H](C(=O)NCC(=O)N[C@@H](CCCCN)C(=O)N[C@@H](CCCCN)C(N)=O)NC(=O)[C@H](C)NC(=O)[C@H](C)NC(=O)[C@H](Cc3c[nH]c4ccccc34)NC(=O)[C@H](CSSC[C@H](NC(=O)[C@H](CC(C)C)NC(=O)[C@H](C)N)C(=O)N[C@@H](CC(N)=O)C(=O)N2)NC(=O)[C@H](CCC(N)=O)NC(=O)[C@H](Cc2c[nH]cn2)NC(=O)[C@@H]2CCCN2C(=O)[C@H]([C@@H](C)CC)NC1=O` [Peptide 66, TPN-RQ(K16A/K17A)] (H-ALCNCNRRIIPHQCWAACGKK-NH2; disulfide 3-14, 5-18), the inhibition at 1 µM is 20 to 40%.
